Assay results published in patent US20080171893A1, “Isotopically labeled alpha-keto acids and esters” (Spectra Gases, Inc., priority 2006, published 2008).

Assays:
[1] = Concentration study: stability of pyruvic acid solutions in water at higher concentrations; assay type: physicochemical; parameters: unit not given here; details: light, about 22° C. to about 26° C.
Procedure: Each of these commercial solutions were subjected to light for 6-weeks at temperatures ranging from about 22° C. to about 26° C. At each of the concentrations listed below, it was discovered that the pyruvic acid solutions were stable.

[2] = background statement; cited from earlier work
[3] = Shelf storage stability of [1-^13C]pyruvic acid in water, by ^1H and ^13C NMR; assay type: physicochemical; details: 0.025M in water
Procedure: Samples of isotopically labeled [1-^13C]pyruvic acid, having Formula VI and synthesized as discussed immediately below, were subjected to various conditions as depicted in Table 1, in order to establish the compound's shelf storage stability.
The resulting [1-^13C]pyruvic acid was tested as follows in Table 1:
^1H and ^13C NMR spectra of the distilled [1-^13C]pyruvic acid in water (0.025M) were acquired at the onset of the study and prior to exposing the samples to the various conditions specified in Table 1. ^1H and ^13C NMR spectra were again acquired for each of the samples after being exposed to the aforementioned conditions on a weekly basis for 12-weeks. The spectra acquired after exposure were compared visually and appeared to remain unchanged as compared with the spectra acquired prior to exposure, i.e. the spectra were as expected for [1-^13C]pyruvic acid in water. As such, it was concluded that each of the samples were shelf stable. Similarly, ^1H and ^13C NMR spectra acquired after 17-weeks of exposure remained unchanged as compared with the spectra acquired prior to exposure.

[4] = Titration of aqueous sample 4 with sodium hydroxide, composition by HPLC; assay type: physicochemical; details: sample 4 titrated with sodium hydroxide to pH of about 6.2
Description: The molarity of sample 4 was confirmed to be 0.025M by titrating the aqueous sample with sodium hydroxide. […] It was also discovered that at pHs greater than 5.8, such as at a pH of about 6.2, some of the pyruvic acid was present in the form of a dimerized sodium salt. […] As such, it was discovered that to minimize dimmer formation, it may be necessary to control the pH of [1-^13C]pyruvate solutions, and in particular, any aqueous solution should be maintained at a pH of about 6.5 or less, more preferably 6.0 or less, and even more preferably 5.8 or less.

[5] = Sample 1: −10° C., dark, NMR spectra unchanged
[6] = Sample 3: room temperature (about 22° C. to about 26° C.), dark
[7] = Sample 4: room temperature (about 22° C. to about 26° C.), light

Row | Compound | Stability after 6-weeks ([1]; concentration 2.3 in water) | Stability after 6-weeks ([1]; concentration 2.8 in water) | Stability after 6-weeks ([1]; concentration 3.8 in water) | Stability after 6-weeks ([1]; concentration 5.7 in water) | Stability after 6-weeks ([1]; concentration 11.3 in water) | Solubility in water [2] | Shelf stability, 12 weeks [3, 5] | Shelf stability, 17 weeks [3, 5] | Shelf stability, 12 weeks ([3]; Sample 2: 4° C., dark) | Shelf stability, 17 weeks ([3]; Sample 2: 4° C., dark) | Shelf stability, 12 weeks [3, 6] | Shelf stability, 17 weeks [3, 6] | Shelf stability, 12 weeks [3, 7] | Shelf stability, 17 weeks [3, 7] | Content of dimerized [1-^13C]pyruvate salt by HPLC [4] | Content of sodium [1-^13C]pyruvate by HPLC [4] [%] | Share of the pyruvic acid accounted for by the dimerized salt [4]
1 | CC(=O)C(=O)O [Formula VIB, 2-oxopropanoic acid] | Stable | Stable | Stable | Stable | Stable | soluble in water | – | – | – | – | – | – | – | – | – | – | –
2 | CC(=O)[13C](=O)O [[1-^13C]pyruvic acid] | – | – | – | – | – | – | Stable | Stable | Stable | Stable | Stable | Stable | Stable | Stable | 2-4% | 89 | 4-6%
